Results published in ChEMBL document CHEMBL3885881, “DrugMatrix”.

Species: Rattus norvegicus
Assay: DrugMatrix - Regimen: Daily Repeat
Assay type: toxicity, organism-based, Sprague-Dawley
Set-up: regimen Daily Repeat, gender Male, age 6-8 weeks
Conditions: in vivo, po, 0 mg/kg, route oral GAVAGE, dose level Control, […]; for ABSOLUTE BASOPHIL / ABSOLUTE EOSINOPHIL / ABSOLUTE LYMPHOCYTE / ABSOLUTE MONOCYTE / BASOPHIL / EOSINOPHIL / ERYTHROCYTE COUNT / HEMATOCRIT / HEMOGLOBIN / LEUKOCYTE COUNT / LYMPHOCYTE / MEAN CORPUSCULAR HEMOGLOBIN / MEAN CORPUSCULAR HEMOGLOBIN CONCENTRATION / MEAN CORPUSCULAR VOLUME / MONOCYTE / NEUTROPHIL / PLATELET COUNT: tissue Blood
[1] = 72 h, tissue Plasma, time 3 day
[2] = 120 h, tissue Plasma, time 5 day

Clc1ccc(Cl)cc1 [1,4-DICHLOROBENZENE]
ABSOLUTE BASOPHIL (72 h, time 3 day): 50 cells/µL | ABSOLUTE EOSINOPHIL (72 h, time 3 day): 43.3 cells/µL | ABSOLUTE LYMPHOCYTE (72 h, time 3 day): 9670 cells/µL | ABSOLUTE MONOCYTE (72 h, time 3 day): 210 cells/µL | BASOPHIL (72 h, time 3 day): 0.4% | EOSINOPHIL (72 h, time 3 day): 0.37% | ERYTHROCYTE COUNT (72 h, time 3 day): 6.82 x10E6/uL | HEMATOCRIT (72 h, time 3 day): 46.77% | HEMOGLOBIN (72 h, time 3 day): 14.53 G/DL | LEUKOCYTE COUNT (72 h, time 3 day): 11.77 x10E3/uL | LYMPHOCYTE (72 h, time 3 day): 82.1% | MEAN CORPUSCULAR HEMOGLOBIN (72 h, time 3 day): 21.33 pg | MEAN CORPUSCULAR HEMOGLOBIN CONCENTRATION (72 h, time 3 day): 31.13 G/DL | MEAN CORPUSCULAR VOLUME (72 h, time 3 day): 68.57 fL | MONOCYTE (72 h, time 3 day): 1.8% | NEUTROPHIL (72 h, time 3 day): 14.83% | PLATELET COUNT (72 h, time 3 day): 1303.33 x10E3/uL | ALANINE AMINOTRANSFERASE [1]: 46.67 u/L | ALBUMIN [1]: 4.17 G/DL | ALKALINE PHOSPHATASE [1]: 530 u/L | ASPARTATE AMINOTRANSFERASE [1]: 81.33 u/L | BLOOD UREA NITROGEN [1]: 17.67 mg/dL | CARBON DIOXIDE [1]: 41.67 mmol/L | CHLORIDE [1]: 102 MEQ/L | CHOLESTEROL [1]: 70.33 mg/dL | CREATINE PHOSPHOKINASE [1]: 372.67 u/L | CREATININE [1]: 0.5 mg/dL | GLUCOSE [1]: 184 mg/dL | LIPASE [1]: 13.33 u/L | PHOSPHORUS [1]: 10.2 mg/dL | POTASSIUM [1]: 6.13 MEQ/L | SODIUM [1]: 145 MEQ/L | TOTAL BILIRUBIN [1]: 0.43 mg/dL | TOTAL PROTEIN [1]: 6.7 G/DL | URIC ACID [1]: 0.83 mg/dL | ABSOLUTE BASOPHIL (120 h, time 5 day): 33.3 cells/µL | ABSOLUTE EOSINOPHIL (120 h, time 5 day): 56.7 cells/µL | ABSOLUTE LYMPHOCYTE (120 h, time 5 day): 9220 cells/µL | ABSOLUTE MONOCYTE (120 h, time 5 day): 230 cells/µL | BASOPHIL (120 h, time 5 day): 0.3% | EOSINOPHIL (120 h, time 5 day): 0.5% | ERYTHROCYTE COUNT (120 h, time 5 day): 6.62 x10E6/uL | HEMATOCRIT (120 h, time 5 day): 46.43% | HEMOGLOBIN (120 h, time 5 day): 14.3 G/DL | LEUKOCYTE COUNT (120 h, time 5 day): 10.96 x10E3/uL | LYMPHOCYTE (120 h, time 5 day): 83.83% | MEAN CORPUSCULAR HEMOGLOBIN (120 h, time 5 day): 21.57 pg | MEAN CORPUSCULAR HEMOGLOBIN CONCENTRATION (120 h, time 5 day): 30.77 G/DL | MEAN CORPUSCULAR VOLUME (120 h, time 5 day): 70.13 fL | MONOCYTE (120 h, time 5 day): 2.1% | NEUTROPHIL (120 h, time 5 day): 12.53% | PLATELET COUNT (120 h, time 5 day): 1056.67 x10E3/uL | ALANINE AMINOTRANSFERASE [2]: 41.33 u/L | ALBUMIN [2]: 4.07 G/DL | ALKALINE PHOSPHATASE [2]: 603.33 u/L | ASPARTATE AMINOTRANSFERASE [2]: 80 u/L | BLOOD UREA NITROGEN [2]: 14.67 mg/dL | CARBON DIOXIDE [2]: 43 mmol/L | CHLORIDE [2]: 104 MEQ/L | CHOLESTEROL [2]: 88.33 mg/dL | CREATINE PHOSPHOKINASE [2]: 391.67 u/L | CREATININE [2]: 0.47 mg/dL | GLUCOSE [2]: 156 mg/dL | LIPASE [2]: 10.67 u/L | PHOSPHORUS [2]: 9.03 mg/dL | POTASSIUM [2]: 6.1 MEQ/L | SODIUM [2]: 145.67 MEQ/L | TOTAL BILIRUBIN [2]: 0.37 mg/dL | TOTAL PROTEIN [2]: 6.53 G/DL | URIC ACID [2]: 0.5 mg/dL | ABSOLUTE BASOPHIL (time 14 day): 73.3 cells/µL | ABSOLUTE EOSINOPHIL (time 14 day): 60 cells/µL | ABSOLUTE LYMPHOCYTE (time 14 day): 12200 cells/µL | ABSOLUTE MONOCYTE (time 14 day): 250 cells/µL | BASOPHIL (time 14 day): 0.5% | EOSINOPHIL (time 14 day): 0.37% | ERYTHROCYTE COUNT (time 14 day): 7.33 x10E6/uL | HEMATOCRIT (time 14 day): 44.3% | HEMOGLOBIN (time 14 day): 14.77 G/DL | LEUKOCYTE COUNT (time 14 day): 14.86 x10E3/uL | LYMPHOCYTE (time 14 day): 81.87% | MEAN CORPUSCULAR HEMOGLOBIN (time 14 day): 20.2 pg | MEAN CORPUSCULAR HEMOGLOBIN CONCENTRATION (time 14 day): 33.33 G/DL | MEAN CORPUSCULAR VOLUME (time 14 day): 60.57 fL | MONOCYTE (time 14 day): 1.63% | NEUTROPHIL (time 14 day): 14.93% | PLATELET COUNT (time 14 day): 1101.67 x10E3/uL | ALANINE AMINOTRANSFERASE (tissue Plasma, time 14 day): 31.67 u/L | ALBUMIN (tissue Plasma, time 14 day): 3.83 G/DL | ALKALINE PHOSPHATASE (tissue Plasma, time 14 day): 430.67 u/L | ASPARTATE AMINOTRANSFERASE (tissue Plasma, time 14 day): 87 u/L | BLOOD UREA NITROGEN (tissue Plasma, time 14 day): 14.33 mg/dL | CARBON DIOXIDE (tissue Plasma, time 14 day): 39 mmol/L | CHLORIDE (tissue Plasma, time 14 day): 104 MEQ/L | CHOLESTEROL (tissue Plasma, time 14 day): 66 mg/dL | CREATINE PHOSPHOKINASE (tissue Plasma, time 14 day): 441.67 u/L | CREATININE (tissue Plasma, time 14 day): 0.7 mg/dL | GLUCOSE (tissue Plasma, time 14 day): 125.67 mg/dL | LACTATE DEHYDROGENASE (tissue Plasma, time 14 day): 397.67 u/L | LIPASE (tissue Plasma, time 14 day): 12.33 u/L | PHOSPHORUS (tissue Plasma, time 14 day): 9.87 mg/dL | POTASSIUM (tissue Plasma, time 14 day): 5.93 MEQ/L | SODIUM (tissue Plasma, time 14 day): 145 MEQ/L | TOTAL BILIRUBIN (tissue Plasma, time 14 day): 0.37 mg/dL | TOTAL PROTEIN (tissue Plasma, time 14 day): 6.27 G/DL | URIC ACID (tissue Plasma, time 14 day): 0.67 mg/dL
